# A melting point compilation (Tetko et al.; mined from patent text by program, amines drawn as free bases though some values may be those of a salt)
row,melting point [°C],Structure (SMILES)
1,70 to 73,CCCCCS(=O)(=O)NC(=O)OCc1ccc(OC(C)C)cc1Oc1ncc(C(F)(F)F)cc1Cl
2,85 to 86,OC1CCCCCC1n1cncn1 (stereo unspecified)
3,120 to 122,C=CCOc1ccc(C(C)(C)C)cc1C(C(=O)O)c1ccccc1 (stereo unspecified)
4,190 to 193,CCOC(=O)n1cc(F)c(N)nc1=O
5,176 to 178,COc1cc(C(=O)O)ccc1NC(=O)OC(C)(C)C
6,152 to 153,Cc1ccccc1NC(=O)CN1C[C@@H](C)N(S(=O)(=O)c2cccc(C#N)c2)[C@@H](C)C1
7,157 to 158,COc1cc(OC)cc(-c2ncn(-c3cc(OC)c(OC)c(OC)c3)c2-c2ccc(OC)c(F)c2)c1
8,129,COc1cc(OC)nc(Oc2cccc(Oc3nc(OC)cc(OC)n3)c2C=O)n1
9,168 to 170,CC(=O)N1C(=O)C(C(=O)c2cccs2)c2cc(Cl)ccc21 (stereo unspecified)
10,> 300,CCc1[nH]n(C2CCCC2)c2nc(-c3ccc4nccn4c3)nc(=O)c1-2
11,159,COc1cc(C)c(C(=O)c2c(Cl)cccc2Cl)cc1Br
12,107,Cc1cc(-c2cc(C(F)F)n3nccc3n2)ccc1Cl
13,127 to 129,Cc1ccc(O[C@H]2CCN(C)C[C@H]2O)cc1C (relative stereo)
14,275 to 280,O=C(O)c1cn(C2CC2)c2c(F)c(N3CC4CCC3CN4)c(F)cc2c1=O (stereo unspecified)
15,209 to 211,NS(=O)(=O)Oc1cccc(-n2cnc(-c3ccccc3)c2)c1
16,140 to 144,CCCCc1nc(Cl)c(C(=O)O)n1Cc1ccc2oc(-c3ccccc3-c3nnn[nH]3)c(OC)c2c1
17,80 to 82.5,CC(C)(C)ON1C(C)(C)CC(OC(=O)c2ccccc2)CC1(C)C
18,202 to 204,CC(=O)Nc1nc2c(ncn2COCCOC(C)=O)c(=O)[nH]1
19,72 to 74,CC(CN1CCC(Nn2cccc2)CC1)c1ccccc1 (stereo unspecified)
20,168 to 170,CC(C)N1C(=O)c2cnc(-c3ccccc3)nc2N(C(=O)CN2CCN(C)CC2)c2ccccc21
21,244 to 245,Nc1nnc(-c2ccc3ncn(-c4cccc(C(F)(F)F)c4)c3c2)o1
22,183 to 186,Nc1ccc2oc(=O)c(N)cc2c1
23,233 to 235,O=C(NCc1ccncc1)c1[nH]c2ccc(Cl)cc2c1S(=O)c1ccccc1 (stereo unspecified)

row,melting point [°C],Structure (SMILES)
1,104 to 107,CC(C)c1noc(-c2c(Cl)ccc(C(=O)O)c2Cl)n1
2,58,CCCCCCCCC(=CC=C(O)C(=O)OCC)C(=O)OCC
3,180 to 183,N#Cc1cc(O)cc2nc(-c3ccc(O)cc3)oc12
4,118 to 120,CCOC(=O)c1c2ccc(Cl)cc2c(-c2ccccc2)n1CC(=O)N(CC)CC
5,188 to 190,O=C1c2ccccc2C(=O)N1c1cccc(S(F)(F)(F)(F)F)c1
6,160 to 161,FC(F)c1nc2ccccc2n1-c1nc(NCc2cccnc2)nc(N2CCOCC2)n1
7,136 to 138,CC(=NOCCOc1ccc(CC2SC(=O)NC2=O)cc1)c1ccc(-c2ccccc2)cn1 (stereo unspecified)
8,> 250,CCOC(=O)c1nc2c(=O)[nH]c3cc(C(F)(F)F)ccc3n2c1CP(=O)(O)O
9,223 to 226,COc1ccc(C(=O)N[C@H]2CCN(C)C[C@H]2c2ccc(OC)c(OC)c2)cc1 (relative stereo)
10,167 to 169,Cn1cc(Br)c(=O)c(-c2cccc(C(F)(F)F)c2)c1
11,104 to 105,CCOc1ccc(OCCCc2cn(-c3ccc(C(F)(F)F)cn3)nc2OCC)c(CCC(=O)O)c1
12,156,Cc1cc(Nc2ccc(F)cc2)nc(Nc2ccc(S(=O)(=O)N(C)C3CCN(Cc4ccoc4)CC3)cc2)n1
13,184,O=C(c1cccs1)c1cnn2c(-c3cccc(-c4nnn(Cc5ccccn5)n4)c3)ccnc12
14,187 to 189,C[Si](C)(C)c1ccc(NC(=O)NC(=O)c2c(F)cccc2F)cc1
15,112,O=c1[nH]c2ccc(Cl)cc2n1-c1cccc(Cl)c1
16,204 to 205,COc1c(C#Cc2ccccc2)c(=O)c2ccc(Cl)cc2[nH]c1=O
17,179,Nc1cccc2c1Cc1cccc(N)c1C2
18,238 to 240,CN1CCC2(CCc3c(C4=C(c5cn(C)c6ccccc56)C(=O)OC4=O)c4ccccc4n3C2)C1 (stereo unspecified)
19,112 to 114,CCCCCCCCCCCC(=O)NC1C(C)C(c2ccccc2)NC(c2ccccc2)C1C (stereo unspecified)
20,75 to 80,CCCCCCCCCCCCCCCCCC(=O)OC1CCN(O)CC1
21,103 to 104,O=C(c1cccc(Cl)n1)c1ccc(Cl)cc1Cl
22,187 to 188,CCOC(=O)Cc1sc(NC(C)=O)nc1-c1ccc(Cl)cc1
23,80 to 81,CCOC(=O)CC(=O)Nc1cccc2ccccc12

row,melting point [°C],Structure (SMILES)
1,57,CC(C)CC(Cn1cc(Sc2ccccc2)c2ccccc21)N(O)C(N)=O (stereo unspecified)
2,86 to 88,CC(C)(C)OC(=O)NCc1ccnc(Cl)n1
3,197 to 198,COc1ccc(Cc2cnc(NCCSCc3nc[nH]c3C)[nH]c2=O)cn1
4,89 to 90,CCOC(=O)c1c(NC2CC(C)(C)NC(C)(C)C2)cc(C)nc1C
5,173 to 174,O=C(Nc1ccc(Cc2nnn[nH]2)cc1)C(F)(F)C(F)(F)C(F)(F)C(F)(F)F
6,237 to 238,O=Cc1cn(-c2cccnc2)nc1-c1ccc([N+](=O)[O-])o1
7,167 to 168,CC(c1ccc(-c2ccccc2)c(F)c1)c1csc(N)n1 (stereo unspecified)
8,155 to 157,O=c1cc(CO)occ1OCCC12CC3CC(CC(C3)C1)C2
9,264 to 265,Cc1cc[nH]c(=O)c1NC(=O)c1ccccc1
10,101 to 103,CC(=O)c1ccc(OCCCCl)c(O)c1
11,47.5 to 48.5,Cc1cc(C)cc(C(Cl)=NNc2ccccc2)c1
12,114,CSC(=S)Nc1ccccc1N
13,96,OCc1ccc(Oc2cccnc2)c(C(F)(F)F)c1
14,251 to 253,Cc1cccc(NC(=O)CN2C(=O)C3(COc4cc5c(cc43)CCO5)c3ccccc32)c1C (stereo unspecified)
15,114 to 116,COc1ccc(CONS(C)(=O)=O)cc1
16,162 to 164,O=C(NCCN1CCNC1=O)Nc1ccccc1
17,192 to 193,O=CNc1ccc(S(=O)(=O)C[N+](=O)[O-])cc1
18,143 to 144,CCCCCCCCC(CCCCCCCC)N1C(=O)c2ccc3c4cccc5cccc(c6ccc(c2c36)C1=O)c54
19,120 to 121,Cc1cccc(NC(=O)CN2CCN(c3ccccc3)CC2)c1
20,151 to 153,CC1=NC(=NO)SC1(C)C
21,169,CCOC(=O)C1=C(C)NC(N)=C(C(=O)OCC)C1c1cccc([N+](=O)[O-])c1 (stereo unspecified)
22,158 to 160,CC(C)c1ccc2c(c1)OC(C(F)(F)F)C(C(=O)O)=C2 (stereo unspecified)
23,159,COc1ccc(CN2C(=O)C(C)(c3cc(N(S(C)(=O)=O)S(C)(=O)=O)ccc3Cl)c3cc(Cl)ccc32)c(OC)c1 (stereo unspecified)

row,melting point [°C],Structure (SMILES)
1,240,CCOC(=O)c1c(N2CCN(C(=O)c3cccs3)CC2)c2sccc2n(CC(=O)c2ccccc2)c1=O
2,208 to 209,CCOC(=O)c1ccc(COCc2csc3nc(C(=O)NCc4cccc(N(C)C(=O)C(F)(F)F)c4)[nH]c(=O)c23)cc1
3,290 to 292,O=C1NCc2c1cc1ccc3c(c1c2-c1ccccc1)OCO3
4,264,Cn1ncc(C(=O)N2CCC2)c1C(=O)Nc1ccn2nc(-c3cccc(F)n3)nc2c1
5,166 to 169,CCOC(=O)c1cnc2c(c(C)nn2-c2ccccn2)c1O
6,117 to 119,Cc1nc(-n2cc(-c3cccnc3)nn2)sc1C(=O)NCc1ccccc1
7,212 to 214,Cc1nc(NC(=O)c2ccc(Cl)c(Cl)c2)sc1C(=O)NCc1ccccc1
8,132 to 133,Cc1cc([N+](=O)[O-])cc(C=O)c1O
9,113,CC(C)(CO)NS(=O)(=O)c1cc([N+](=O)[O-])c(Cl)s1
10,197 to 198,Cc1noc(NC(=O)N2CCN(c3nccc(-c4ccc(F)cc4F)n3)CC2)c1C
11,116 to 118,CCOC(=O)c1cc2cc(N3CCN(C(=O)OC(C)(C)C)CC3)ccc2o1
12,170 to 172,CS(=O)(=O)c1ccc(-n2nc(C(F)(F)F)cc2-c2ccc(C#Cc3ccccc3)cc2)cc1
13,87 to 88,CC(C)NCCNc1ccc2ncc(Br)n2n1
14,222,COc1ccc(C)cc1NC(=O)Nc1ccc(N2CCN(C(=O)C3CCCCC3)CC2)cc1
15,285 to 287,CC(=O)c1ccc2c3c1ccn3C(=O)CNC2
16,82 to 84,COc1ccc(CC2SC(=O)NC2=O)cc1CC(=O)Nc1ccc(Oc2ccccc2)cc1 (stereo unspecified)
17,240 to 242,CCc1nc2cc(Cl)c(S(N)(=O)=O)cc2[nH]1
18,117 to 118,Cc1noc(=O)c2ccc(NC(=O)C(=O)CC3(c4cccc(C(F)(F)F)c4F)CC3)cc12
19,96 to 97.5,COC(=O)c1ccc(-c2ccc(OC)c(OC)c2)cc1OC
20,184 to 186,CCOC(=O)c1c(CO)c(C)n(C)c1C
21,162 to 164,CC(=O)NC1=C(O)CC(C(=O)N(C)C)CC1=O (stereo unspecified)
22,170 to 171,CCCCc1ncc(/C=C(\Cc2cc(OC)cs2)C(=O)O)n1Cc1ccccc1Cl
23,150 to 152,Cc1nc(N2CCc3ccccc3CC2)c(C#N)c(=O)n1NC(=O)OC(C)(C)C

row,Structure (SMILES),melting point [°C]
1,O=C(N1CCOCC1)C12CC(CN1)C2,97.5 to 98
2,CCCC(O)P(=O)(O)CCCN (stereo unspecified),188
3,Nc1ccc(-c2ccc(C(=O)NC3CN4CCC3CC4)o2)cc1 (stereo unspecified),103 to 113
4,Cc1nn2c(-c3cccc(NC(=O)OC(C)C)c3)ccnc2c1C(=O)c1cccs1,186 to 188
5,Cc1cc(NC(=O)Nc2ccc(N(CCCl)CCCl)cc2)c2ccccc2n1,128 to 129
6,CCN(C(C)=O)c1cccc(-c2ccc3nncn3n2)c1,122 to 127
7,O=C(CO)Cc1ccccc1,42 to 43
8,CN1C(=O)CN=C(c2ccccc2F)c2cc(NC(=O)N(CCOC(C)(C)C)Cc3ccccc3)ccc21,82 to 86
9,CCC(=O)N(CC)c1cccc(-c2ccnc3c(C#N)cnn23)c1,161 to 162
